Laboratory results as given in article PMC7614687, “Modulation of the substrate specificity of the kinase PDK1 by distinct conformations of the full-length protein*” (Science signaling, 2023).
“And” between values parts separate entries of the source, which are not always exact repeats. Identical values can stand only once. Like-named read-outs stand apart in the source and are kept apart here.

Key:
PDK1_1-556 = molecular target: T1, PDK1_1-556 (Homo sapiens, UniProt O15530); assay: Differential scanning fluorimetry, thermal stability of PDK1_1-556; type: binding; conditions: PDK1 1 μM
T1 construct: effect of HYG8 on the thermal stability (ΔTm) of PDK1_1-556 (H) and PDK1_50-359 (I); His (N); made in house; host or cells: Sf9 insect cells (baculovirus)
T1 sequence (O15530 1-556): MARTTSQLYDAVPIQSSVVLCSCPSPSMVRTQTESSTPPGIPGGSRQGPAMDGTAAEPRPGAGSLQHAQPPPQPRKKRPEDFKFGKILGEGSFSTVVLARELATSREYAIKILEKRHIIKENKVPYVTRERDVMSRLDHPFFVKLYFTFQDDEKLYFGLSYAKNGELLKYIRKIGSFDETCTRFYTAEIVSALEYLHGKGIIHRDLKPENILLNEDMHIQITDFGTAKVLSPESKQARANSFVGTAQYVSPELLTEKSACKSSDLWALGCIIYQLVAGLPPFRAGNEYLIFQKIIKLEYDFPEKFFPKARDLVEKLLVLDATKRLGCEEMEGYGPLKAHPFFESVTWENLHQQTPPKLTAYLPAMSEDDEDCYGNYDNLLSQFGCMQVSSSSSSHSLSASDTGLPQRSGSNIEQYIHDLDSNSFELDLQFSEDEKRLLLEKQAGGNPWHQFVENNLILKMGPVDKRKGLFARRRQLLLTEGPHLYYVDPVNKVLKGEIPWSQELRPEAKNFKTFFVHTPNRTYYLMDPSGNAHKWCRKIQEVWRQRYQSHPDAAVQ
Protocol: The thermal stability of PDK1 was assessed by monitoring the unfolding of PDK1 by the increase in the fluorescence of SYPRO Orange (Invitrogen) using a real-time PCR device (StepOnePlus, Applied Biosystems and BioRad CFX96) following a previously described protocol ([70]). The reactions were performed in a final volume of 10 μl in white 96-well PCR microtiter plates (Greiner) and contained 1 μM PDK1, 10 mM HEPES (pH 7.5), 150 mM NaCl, 1/1000 SYPRO Orange and 1 mM dithiothreitol. For valsartan, the assay buffer was modified to exclude NaCl. PIFtide or compounds (at a final DMSO concentration of 1%) were added to this reaction mixture. The temperature gradient was performed in steps of 0.3 °C in the range from 25 to 70 °C. To calculate the Tm values, data were exported to GraphPad Prism and curves fitted to a Boltzmann sigmoidal equation with an acceptable confidence interval of 95%. Statistical analysis was performed with Infostat software (http://www.infostat.com.ar) and GraphPad Prism by first verifying a normal distribution of pooled residuals (Shapiro-Wilks test) and homogeneity of variance (F test), and then performing a one-way ANOVA followed by the post hoc comparisons test indicated in each figure legend.

PDK1 = molecular target: T2, PDK1 (Homo sapiens, UniProt O15530); assay: Thermo Fisher "PDK1 Direct" assay (peptide Ser/Thr 07, FRET readout); type: biochemical; conditions: for Hill slope, PDK1 direct / IC50: 10-point titration
T2 sequence (O15530 1-556): T1 sequence (O15530 1-556)

GST-PDK1_1-556 = molecular target: T3, GST-PDK1_1-556 (Homo sapiens, UniProt O15530); assay: AlphaScreen biotin-PIP3 / GST-PDK1_1-556 displacement; type: binding; conditions: PIP3 20 nM, GST-PDK1 3 nM
T3 construct: made in house; host or cells: HEK293 cells (transient transfection of pEBG2T); peptide synthesized by Pepscan
T3 sequence (O15530 1-556): T1 sequence (O15530 1-556)
Protocol: (§1) The AlphaScreen® assay was performed following the general guidelines from the manufacturer (Perkin Elmer) ([29]). In short, the assay was performed in a final volume of 25 μl in white 384-well microtiter plates (Greiner) in a standard buffer containing 50 mM Tris-HCl (pH 7.4), 100 mM NaCl, 2 mM DTT, 0.01% (v/v) Tween-20 and 0.1% (w/v) BSA, with the addition of 5 μl of beads (anti-GST coated acceptor beads and streptavidin-coated donor beads; nickel chelate-coated acceptor beads and streptavidin-coated donor beads; or nickel chelate-coated acceptor beads and GSH-coated donor beads, 20 μg/ml final concentrations for each bead type). AlphaScreen assays for His-tagged proteins and GST-fusion proteins were performed using nickel chelate-coated acceptor beads and GSH-coated donor beads; alphascreen assays for His-tagged proteins and biotinylated molecules were performed using nickel chelate-coated acceptor beads and streptavidin-coated donor beads; alphascreen assays for GST-fusion proteins and biotinylated molecules were performed using anti-GST coated acceptor beads and streptavidin-coated donor beads (Perkin Elmer).
The conditions for each AlphaScreen assay were identified in cross-titration experiments for each interaction to choose the ideal pair of concentrations within the linear range of the interactions. As required, the standard conditions were modified to use less material, to increase binding of the interacting molecules, to lower background signal, and so on. His-PDK1 and GST-fusion protein in the presence or absence of the different compounds were incubated in the dark for 60 min at room temperature and the emission of light from the acceptor beads was measured in an EnVision reader (Perkin Elmer) or Spark plate reader (Tecan). AlphaScreen assays were performed at least twice, although most experiments were performed multiple times by different researchers with different batches of purified proteins with similar results.
Biotin-PIP3 interactions with GST-PDK1_1-556 or GST-PDK1_360-556 were assessed in the standard buffer. […]

[1] = molecular target: T4, His-PDK1_1-556 and GST-PDK1_360-556 (Homo sapiens, UniProt O15530); assay: AlphaScreen PDK1 dimerization assay His-PDK1_1-556 / GST-PDK1_360-556; type: binding
T4 construct: made in house; host or cells: Sf9 insect cells (His-PDK1_1-556); HEK293 cells (GST-PDK1_360-556)
T4 sequence (O15530 1-556): T1 sequence (O15530 1-556)
Protocol: as §1
The conditions for each AlphaScreen assay were identified in cross-titration experiments for each interaction to choose the ideal pair of concentrations within the linear range of the interactions. […] His-PDK1 and GST-fusion protein in the presence or absence of the different compounds were incubated in the dark for 60 min at room temperature and the emission of light from the acceptor beads was measured in an EnVision reader (Perkin Elmer) or Spark plate reader (Tecan). […]

[2] = replicate point 1, read-out: % Inhibition Point 1
[3] = replicate point 2, read-out: % Inhibition Point 2
[4] = single point, N=2, read-out: Inhibition at 1 μM (%)
[5] = absence of PIFtide, read-out: IC50 (nM), displacement of His-PDK1_1-556 interaction with GST-PDK1_360-556
[6] = with PIFtide, read-out: IC50 (nM), displacement of His-PDK1_1-556 interaction with GST-PDK1_360-556 with PIFtide

Row | Tm (°C), temperature stabilization of PDK1_1-556 (PDK1_1-556; compound 1 µM) | Tm (°C), temperature stabilization of PDK1_1-556 (PDK1_1-556; compound 20 µM) | inhibition at 1 µM (PDK1; [2]) | inhibition at 1 µM (PDK1; [3]) | inhibition at 1 µM (PDK1; [4]) | Hill slope, PDK1 direct (PDK1) | IC50 (PDK1) | displacement of PIP3 from GST-PDK1_1-556 (GST-PDK1_1-556) | IC50 [1, 5] | IC50 [1, 6] | Compound
1 | 11.7 °C and 11-15 °C | 13.7 °C and 13-16 °C | 97% | 98% | 98% | 1.39 | 24.5 nM | higher potency than IP5 | 33.3 nM | 19.5 nM | O=C(O[C@H]1[C@@H](OP(=O)(O)O)[C@H](OP(=O)(O)O)[C@@H](OP(=O)(O)O)[C@H](OP(=O)(O)O)[C@H]1OP(=O)(O)O)c1ccccc1 [HYG8, 2-O-benzoyl-IP5]
2 | 15.2 °C and 11-15 °C | 16.5 °C and 13-16 °C | 98% | 101% | 100% | 1.61 | 16.2 nM | almost completely displaced | 29.6 nM | 29.4 nM | CCCCO[C@H]1[C@@H](OP(=O)(O)O)[C@H](OP(=O)(O)O)[C@@H](OP(=O)(O)O)[C@H](OP(=O)(O)O)[C@H]1OP(=O)(O)O [HYG14, 2-O-butyl-IP5]
